Columns and labels:
[1] = molecular target: BCR fusion to kinase domain of MerTK (Ba/F3-MerTK) (Homo sapiens, UniProt Q12866); experiment: In Cell TAM Kinase Assay Using BaF3 Cellular System; format: cell-based, murine; conditions: Ba/F3 BCR-kinase fusion proliferation, 72 hours, Cell Titer Glo; kinase not given; read-out: IC50
Description: Three Ba/F3 cell lines (a murine IL-3 dependent pro-B cell line) expressing BCR fusions to the kinase domains of either MerTK (Ba/F3-MerTK), Axl (Ba/F3-Axl), or Tyro3 (Ba/F3-Tyro3) were purchased from Advanced Cellular Dynamics. The IL-3 independence of all 3 cell lines was confirmed. After thawing, the 3 Ba/F3 cell lines were split and maintained in cell culture media, which consisted of RPMI-1640-HEPES (Thermo-Cat #22400-089) with 1× Glutamax (Thermo-Cat #35050-061) and 10% FBS (Sigma-Cat #F4135 (500 ml), at a cell density range of 0.05×10^6−1×10^6 cells/mL 4 days before used in the routine screen. Compound plates were prepared using Nunc™ white 384-well optical bottom plates (ThermoFisher, USA) with compound in 25 nL dimethyl sulfoxide in each well. For routine assays, each of the 3 Ba/F3 cell lines was seeded at 1,000 cells per well with 25 µL of cell culture media directly into 384-well compound plates and incubated for 72 hours. Cell proliferation was then measured by adding 25 μL of Cell Titer Glo 2.0 (Promega, USA). After incubating with Cell Titer Glo at room temperature for 30 mins, the luminescence intensity, which quantifies the cell viability, was measured using an Envision™ plate reader (PerkinElmer, USA). […] In the presence of IL-3, the proliferation of the Ba/F3-Tyro3 cells is no longer dependent on the Tyro3 kinase activity.

human MER (528-end) = human MER (528-end) (Homo sapiens (Human), UniProt Q12866); experiment: HTRF Kinase Activity Biochemical Assay (KinEASE-TK); conditions: 10 uM ATP
Outline: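 Recombinant human MER (528-end) phosphorylated biotin-TK peptide substrate, 1 h at room temperature. Reaction stopped with detection buffer containing 0.375 nM Eu3+-cryptate anti-TK antibody and 0.062 uM streptavidin-XL665, 1 h further. Activity taken as HTRF ratio 665/620 nm ×10,000, 340 nm excitation.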

Chain of human MER (528-end) (Q12866 528-999 limits assumed): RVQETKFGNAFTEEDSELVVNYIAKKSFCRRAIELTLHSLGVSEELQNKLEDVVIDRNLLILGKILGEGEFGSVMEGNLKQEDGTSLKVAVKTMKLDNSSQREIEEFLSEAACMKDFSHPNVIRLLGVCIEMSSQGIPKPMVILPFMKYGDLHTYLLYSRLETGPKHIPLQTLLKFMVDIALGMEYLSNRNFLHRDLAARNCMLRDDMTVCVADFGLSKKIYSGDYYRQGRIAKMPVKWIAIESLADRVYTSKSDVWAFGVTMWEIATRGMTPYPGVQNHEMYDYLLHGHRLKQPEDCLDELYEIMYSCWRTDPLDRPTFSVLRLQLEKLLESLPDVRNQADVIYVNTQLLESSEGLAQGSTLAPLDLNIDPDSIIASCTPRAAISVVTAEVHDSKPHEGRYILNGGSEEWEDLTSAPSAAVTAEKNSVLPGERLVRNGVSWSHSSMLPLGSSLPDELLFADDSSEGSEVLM
Chain of BCR fusion to kinase domain of MerTK (Ba/F3-MerTK) (Q12866 21-999 limits assumed, stated change not applied): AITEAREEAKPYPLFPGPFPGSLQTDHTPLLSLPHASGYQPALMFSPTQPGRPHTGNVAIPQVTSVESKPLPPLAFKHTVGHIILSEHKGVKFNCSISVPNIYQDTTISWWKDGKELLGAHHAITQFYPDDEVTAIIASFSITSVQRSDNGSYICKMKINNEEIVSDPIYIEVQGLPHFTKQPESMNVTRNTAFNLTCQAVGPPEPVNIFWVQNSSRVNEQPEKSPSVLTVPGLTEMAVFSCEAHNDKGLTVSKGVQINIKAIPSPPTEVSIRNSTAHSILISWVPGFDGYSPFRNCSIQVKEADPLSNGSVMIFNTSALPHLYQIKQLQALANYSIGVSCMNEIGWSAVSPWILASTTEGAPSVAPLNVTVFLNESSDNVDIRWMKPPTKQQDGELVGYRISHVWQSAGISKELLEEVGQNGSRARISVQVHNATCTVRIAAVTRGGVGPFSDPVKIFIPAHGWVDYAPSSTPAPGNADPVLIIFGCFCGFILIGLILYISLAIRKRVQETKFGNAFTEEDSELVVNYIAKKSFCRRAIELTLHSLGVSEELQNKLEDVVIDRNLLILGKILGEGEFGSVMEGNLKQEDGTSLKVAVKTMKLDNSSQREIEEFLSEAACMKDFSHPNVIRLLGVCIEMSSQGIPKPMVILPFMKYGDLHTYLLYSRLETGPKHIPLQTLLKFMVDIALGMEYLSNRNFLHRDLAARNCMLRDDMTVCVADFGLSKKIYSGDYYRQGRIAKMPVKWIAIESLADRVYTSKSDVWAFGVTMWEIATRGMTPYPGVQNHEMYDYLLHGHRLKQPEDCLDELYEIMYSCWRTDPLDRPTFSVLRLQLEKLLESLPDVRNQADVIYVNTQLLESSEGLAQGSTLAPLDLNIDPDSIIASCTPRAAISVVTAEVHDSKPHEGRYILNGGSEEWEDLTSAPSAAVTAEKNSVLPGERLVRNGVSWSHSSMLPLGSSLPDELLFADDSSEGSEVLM

CCn1c(C(=O)N2CC[C@@H](NC(=O)c3cc(-c4cnn(C)c4)cnc3N)C2)cc2ccccc21 [Example 701, (R)-2-amino-N-(1-(1-ethyl-1H-indole-2-carbonyl)pyrrolidin-3-yl)-5-(1-methyl-1H-pyrazol-4-yl)nicotinamide]
IC50 [1]: > 1000 nM | IC50 (human MER (528-end)): > 1000 nM

Cn1cc(-c2cnc(N)c(C(=O)N[C@@H]3CCN(C(=O)c4cc5ccccc5n4Cc4ccccc4)C3)c2)cn1 [Example 702, (R)-2-amino-N-(1-(1-benzyl-1H-indole-2-carbonyl)pyrrolidin-3-yl)-5-(1-methyl-1H-pyrazol-4-yl)nicotinamide]
IC50 [1]: > 1000 nM | IC50 (human MER (528-end)): > 1000 nM

Cn1cc(-c2cnc(N)c(C(=O)N[C@@H]3CCN(C(=O)c4cc5c(C(F)(F)F)ccc(Cl)c5n4C)C3)c2)cn1 [Example 703, (R)-2-amino-N-(1-(7-chloro-1-methyl-4-(trifluoromethyl)-1H-indole-2-carbonyl)pyrrolidin-3-yl)-5-(1-methyl-1H-pyrazol-4-yl)nicotinamide]
IC50 [1]: > 1000 nM | IC50 (human MER (528-end)): > 1000 nM

Cn1cc(-c2cnc(N)c(C(=O)N[C@@H]3CCN(C(=O)c4cc5c(C(F)(F)F)ccc(Cl)c5[nH]4)C3)c2)cn1 [Example 704, (R)-2-amino-N-(1-(7-chloro-4-(trifluoromethyl)-1H-indole-2-carbonyl)pyrrolidin-3-yl)-5-(1-methyl-1H-pyrazol-4-yl)nicotinamide]
IC50 [1]: > 1000 nM | IC50 (human MER (528-end)): > 1000 nM

Cn1cc(-c2cnc(N)c(C(=O)N[C@@H]3CCN(C(=O)c4ccc5cc(O)ccc5c4)C3)c2)cn1 [Example 706, (R)-2-amino-N-(1-(6-hydroxy-2-naphthoyl)pyrrolidin-3-yl)-5-(1-methyl-1H-pyrazol-4-yl)nicotinamide]
IC50 [1]: > 1000 nM | IC50 (human MER (528-end)): 100 to 1000 nM

Cn1cc(-c2cnc(N)c(C(=O)N[C@@H]3CCN(C(=O)c4c[nH]c(=O)n(-c5ccc(F)cc5)c4=O)C3)c2)cn1 [Example 707, (R)-2-amino-N-(1-(3-(4-fluorophenyl)-2,4-dioxo-1,2,3,4-tetrahydropyrimidine-5-carbonyl)pyrrolidin-3-yl)-5-(1-methyl-1H-pyrazol-4-yl)nicotinamide]
IC50 [1]: > 1000 nM | IC50 (human MER (528-end)): > 1000 nM

Cn1cc(-c2cnc(N)c(C(=O)N[C@@H]3CCN(C(=O)c4cc5cc(Br)ccc5s4)C3)c2)cn1 [Example 708, (R)-2-amino-N-(1-(5-bromobenzo[b]thiophene-2-carbonyl)pyrrolidin-3-yl)-5-(1-methyl-1H-pyrazol-4-yl)nicotinamide]
IC50 [1]: 500 to 1000 nM | IC50 (human MER (528-end)): 100 to 1000 nM

Cn1cc(-c2cnc(N)c(C(=O)N[C@@H]3CCN(C(=O)c4ccc5c(ccn5CC5CCNCC5)c4)C3)c2)cn1 [Example 709, (R)-2-amino-5-(1-methyl-1H-pyrazol-4-yl)-N-(1-(1-(piperidin-4-ylmethyl)-1H-indole-5-carbonyl)pyrrolidin-3-yl)nicotinamide]
IC50 [1]: > 1000 nM | IC50 (human MER (528-end)): 100 to 1000 nM

Cn1cc(-c2cnc(N)c(C(=O)N[C@@H]3CCN(C(=O)c4c[nH]c5ccccc45)C3)c2)cn1 [Example 710, (R)—N-(1-(1H-indole-3-carbonyl)pyrrolidin-3-yl)-2-amino-5-(1-methyl-1H-pyrazol-4-yl)nicotinamide]
IC50 [1]: > 1000 nM | IC50 (human MER (528-end)): > 1000 nM

Cn1cc(-c2cnc(N)c(C(=O)N[C@@H]3CCN(C(=O)c4ccc(-c5ccc(CN6CCOCC6)cc5)cc4)C3)c2)cn1 [Example 711, (R)-2-amino-5-(1-methyl-1H-pyrazol-4-yl)-N-(1-(4′-(morpholinomethyl)-[1,1′-biphenyl]-4-carbonyl)pyrrolidin-3-yl)nicotinamide]
IC50 [1]: > 1000 nM | IC50 (human MER (528-end)): > 1000 nM

Cn1cc(-c2cnc(N)c(C(=O)N[C@@H]3CCN(C(=O)c4ccc(-c5cccc(-c6nnnn6C)c5)cc4)C3)c2)cn1 [Example 712, (R)-2-amino-5-(1-methyl-1H-pyrazol-4-yl)-N-(1-(3′-(1-methyl-1H-tetrazol-5-yl)-[1,1′-biphenyl]-4-carbonyl)pyrrolidin-3-yl)nicotinamide]
IC50 [1]: 500 to 1000 nM | IC50 (human MER (528-end)): 10 to 100 nM
